The record followed here is the supplement of paper PMC10307832.

Assay in all cases: relative viability (nuclei count vs DMSO), 5 days (fraction); higher = more cells survive
Compound in the assay “BAY61-3606 + Linsitinib”: COC1=C(C=C(C=C1)C2=CC3=NC=CN3C(=N2)NC4=C(C=CC=N4)C(=O)N)OC [BAY61-3606] + C[C@]1(O)C[C@@H](c2nc(-c3ccc4ccc(-c5ccccc5)nc4c3)c3c(N)nccn32)C1 [Linsitinib] (partner 1 µM)
The essentials:
(§1)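 Lung cancer cell lines in 1536-well plates got either a single drug or a fixed anchor-drug dose together with five library-drug doses (not always all listed) in √10 steps, by pin tool, on the day after seeding. Nuclei were counted after 5 days, and relative viability is the treated-to-vehicle ratio of nuclei counts. Values are medians of duplicate plates.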

Compound in the assay “BAY61-3606 + Olaparib”: COC1=C(C=C(C=C1)C2=CC3=NC=CN3C(=N2)NC4=C(C=CC=N4)C(=O)N)OC [BAY61-3606] + O=C(c1cc(Cc2n[nH]c(=O)c3ccccc23)ccc1F)N1CCN(C(=O)C2CC2)CC1 [Olaparib] (partner 8 µM)
The essentials:
as §1

Compound in the assay “Doxorubicin + Trametinib”: COc1cccc2c1C(=O)c1c(O)c3c(c(O)c1C2=O)C[C@@](O)(C(=O)CO)C[C@@H]3O[C@H]1C[C@H](N)[C@H](O)[C@H](C)O1 [Doxorubicin] + CC(=O)Nc1cccc(-n2c(=O)n(C3CC3)c(=O)c3c(Nc4ccc(I)cc4F)n(C)c(=O)c(C)c32)c1 [Trametinib] (partner 0.02 µM)
The essentials: as §1

Compound in the assay “Doxorubicin + Phenformin”: COc1cccc2c1C(=O)c1c(O)c3c(c(O)c1C2=O)C[C@@](O)(C(=O)CO)C[C@@H]3O[C@H]1C[C@H](N)[C@H](O)[C@H](C)O1 [Doxorubicin] + N=C(N)NC(=N)NCCc1ccccc1 [Phenformin] (partner 250 µM)
The essentials:
as §1

With UMC-11, the relative viability with BAY61-3606 + Linsitinib (first compound 0.02 µM) is 1.08; with BAY61-3606 + Linsitinib (first compound 0.06325 µM), 1.11; in the assay with BAY61-3606 + Linsitinib (first compound 0.2 µM) it was 0.995; with BAY61-3606 + Linsitinib (first compound 0.6325 µM), 1.08; with BAY61-3606 + Linsitinib (first compound 2 µM) it was 1; in the assay with BAY61-3606 + Olaparib (first compound 0.02 µM) it was 0.351. Also, the relative viability with BAY61-3606 + Olaparib (first compound 0.06325 µM) was 0.385; in the assay with BAY61-3606 + Olaparib (first compound 0.2 µM) it was 0.268; with BAY61-3606 + Olaparib (first compound 0.6325 µM), 0.643; with BAY61-3606 + Olaparib (first compound 2 µM), 0.266; in the assay with Doxorubicin + Trametinib (first compound 0.001 µM) it was 0.948; with Doxorubicin + Trametinib (first compound 0.003162 µM), 0.761. The relative viability with Doxorubicin + Trametinib (first compound 0.01 µM) is 0.768; in the assay with Doxorubicin + Trametinib (first compound 0.03162 µM), 0.366; with Doxorubicin + Trametinib (first compound 0.1 µM), 0.442; in the assay with Doxorubicin + Phenformin (first compound 0.001 µM), 0.307; with Doxorubicin + Phenformin (first compound 0.003162 µM), 0.247; with Doxorubicin + Phenformin (first compound 0.01 µM) it was 0.313. In addition, the relative viability with Doxorubicin + Phenformin (first compound 0.03162 µM) was found to be 0.207; with Doxorubicin + Phenformin (first compound 0.1 µM) it was 0.233.
